One experiment has as its target T1, PGM from rabbit muscle (Oryctolagus cuniculus, UniProt P00949).
T1 construct: Commercial PGM from rabbit muscle; purchased Boehringer Mannheim 108375; host or cells: rabbit muscle
T1 sequence (P00949 1-562): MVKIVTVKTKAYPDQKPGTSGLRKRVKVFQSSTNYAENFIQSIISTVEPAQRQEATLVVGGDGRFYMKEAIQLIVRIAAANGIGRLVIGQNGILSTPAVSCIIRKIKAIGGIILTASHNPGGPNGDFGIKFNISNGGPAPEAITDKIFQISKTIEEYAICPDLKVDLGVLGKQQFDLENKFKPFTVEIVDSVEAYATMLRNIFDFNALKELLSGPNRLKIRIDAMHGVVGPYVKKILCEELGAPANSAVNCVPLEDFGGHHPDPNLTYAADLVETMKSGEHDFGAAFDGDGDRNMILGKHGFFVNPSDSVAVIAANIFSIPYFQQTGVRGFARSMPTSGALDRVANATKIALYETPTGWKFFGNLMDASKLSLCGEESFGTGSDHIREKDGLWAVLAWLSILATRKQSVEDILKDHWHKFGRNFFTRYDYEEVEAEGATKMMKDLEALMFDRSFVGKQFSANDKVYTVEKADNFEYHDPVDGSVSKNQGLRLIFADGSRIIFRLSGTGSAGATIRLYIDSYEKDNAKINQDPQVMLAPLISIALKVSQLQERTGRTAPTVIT
The experiment can be described thus: Activity assay of phosphoglucomutase (PGM), commercial rabbit muscle PGM. Format: biochemical. As to conditions: HPLC; for conversion of substrate by rabbit muscle PGM (glucosamine-1-phosphate to glucosamine-6-phosphate or reverse): 2 mM substrate, 30° C., 15 min, at completion/end of reaction. Here is the method:
(§1) 3. Activity Assay of Phosphoglucomutase (PGM)
(§2) glucosamine-6-phosphate→glucosamine-1-phosphate
(§3) 80 mM triethanolamine, pH 7.6
(§4) 20 μM glucosae-1,6-bisphosphate
(§5) 2 mM glucosamine-1-phosphate or glucosamine-6-phosphate
Commercial PGM from rabbit muscle (Boehringer Mannheim, Catalog No. 108375)
(§6) Incubated at 30° C. for 15 min.
(§7) * Transferred to a Centricon-30 concentrator and centrifuged at 1,400× for 20 min.
(§8) Removed 100 μl of the filtrate and added 400-μl water.
(§9) Injected 50 μl onto Dionex's CarboPac PA1 column and detected with a pulsed amperometry detector.
(§10) Eluted with 100 mM NaOH and 100 mM NaOH/1M sodium acetate (to detect formation of glucosamine-6-phosphate or glucosamine-1-phosphate): […]

The target of a further experiment is T2, bovine liver UGPase (Bos taurus, UniProt Q07130).
T2 construct: purchased Sigma U 5877; host or cells: bovine liver
T2 sequence (Q07130 1-508): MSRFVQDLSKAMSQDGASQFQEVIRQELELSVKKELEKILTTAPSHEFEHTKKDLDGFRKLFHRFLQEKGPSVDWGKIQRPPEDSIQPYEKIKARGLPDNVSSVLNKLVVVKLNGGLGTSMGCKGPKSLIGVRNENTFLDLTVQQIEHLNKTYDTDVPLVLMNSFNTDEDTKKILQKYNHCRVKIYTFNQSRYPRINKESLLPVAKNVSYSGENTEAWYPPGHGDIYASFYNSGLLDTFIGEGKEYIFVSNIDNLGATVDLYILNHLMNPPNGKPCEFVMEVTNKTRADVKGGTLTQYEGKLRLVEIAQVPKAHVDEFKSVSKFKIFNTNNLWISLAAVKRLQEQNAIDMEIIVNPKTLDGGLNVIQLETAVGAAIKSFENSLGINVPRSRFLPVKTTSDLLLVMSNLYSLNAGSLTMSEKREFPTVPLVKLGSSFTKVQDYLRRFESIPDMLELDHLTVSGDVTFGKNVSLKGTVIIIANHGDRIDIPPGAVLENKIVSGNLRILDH
The experiment in a line: Activity assay of UDPglucose pyrophosphorylase (UGPase), bovine liver enzyme. Format: biochemical. As to conditions: 2 mM substrate, 1 mM UTP, 30° C., 30 minutes, HPLC. The method, then:
(§11) 4. Activity Assay of UDPglucose Pyrophosporylase (UGPase) [drawing 1]
(§12) The above reaction is evaluated with an alternative substrate, glucosamine-1-phosphate.
(§13) Enzymes: UDP-glucose pyrophorylases purified from Bakers yeast (U 8501) & bovine liver (U 5877) by Sigma;
(§14) UGPase assay was conducted per protocals used by Sigma;
(§15) 48 mM Tris-HCl, pH 8.5; 19 mM MgCl2; 2.3 mM β-mercaptoethanol; 1 mM UTP; inorganic pyrophosphorylase; 2 mM glucose-1-P or glucosamine-1-P;
(§16) Carried out the reactions at 30° C. for 30 minutes;
(§17) Boiled for 5 min and passed through Centrion-10;

The next experiment relates to Phosphoglucomutase (PGM). The experiment can be described thus: Activity assay of phosphoglucomutase (PGM), maize endosperm protein extract. Type of experiment: biochemical. The note with it: extract from immature seeds, 20 days after pollination, HPLC. Here is the method:
as §1, §2, §3, §4, §5
Maize endosperm protein extract (200-μg total protein per 1.0 ml reaction)
Ground kernels in ice-cold homogenization buffer (50 mM KH2PO4, pH 7.0; 5 mM EDTA; and 1 mM
DTT). Kernels were dissected from an ear (HN18) harvested 20 days after pollination.
Filtered the homogenate through 4-layer cheesecloth, and centrifuged at 25,000×g for 20 min at 4° C.
Desalted the supernatant into the homogenization buffer using a fast FPLC desalting column and collected the flow through.
Added PMSF and chymostatin to a final concentration of 1 mM and used the flow-through as crude PGM prep for the assay.
as §6, §7, §8, §9, §10

The next experiment deals with UGPase. The experiment in a line: UGPase activity in the maize endosperm protein extract. Format: biochemical. The note with it: extract from seeds harvested 20 days after pollination. Here is the method:
For UGPase Activity in the Maize Endosperm
Weighted 8-g GS3 kernels (20 days after pollination);
Added 0.5-ml Boehringer's protease inhibitor cocktail (one tablet dissolved in 1-ml water);
Blended for 10 sec, 3×at 4° C.;
Filtered through three layers of Cheesecloth at 4° C.;
Passed two 100-μl aliquots through a BioRad's BioSpin-30 column using a swing bucked rotor in Jouan at 2100 rpm, at RT, & repeated (i.e. two Bio-Spin-30 columns used for each of the 2, 100-μl aliquots);
as §15, §16, §17

Another experiment addresses T3, Baker yeast UGPase (Saccharomyces cerevisiae, UniProt P32861).
T3 construct: UDP-glucose pyrophorylases purified from Bakers yeast (U 8501); purchased Sigma U 8501; host or cells: Bakers yeast
T3 sequence (P32861 1-499): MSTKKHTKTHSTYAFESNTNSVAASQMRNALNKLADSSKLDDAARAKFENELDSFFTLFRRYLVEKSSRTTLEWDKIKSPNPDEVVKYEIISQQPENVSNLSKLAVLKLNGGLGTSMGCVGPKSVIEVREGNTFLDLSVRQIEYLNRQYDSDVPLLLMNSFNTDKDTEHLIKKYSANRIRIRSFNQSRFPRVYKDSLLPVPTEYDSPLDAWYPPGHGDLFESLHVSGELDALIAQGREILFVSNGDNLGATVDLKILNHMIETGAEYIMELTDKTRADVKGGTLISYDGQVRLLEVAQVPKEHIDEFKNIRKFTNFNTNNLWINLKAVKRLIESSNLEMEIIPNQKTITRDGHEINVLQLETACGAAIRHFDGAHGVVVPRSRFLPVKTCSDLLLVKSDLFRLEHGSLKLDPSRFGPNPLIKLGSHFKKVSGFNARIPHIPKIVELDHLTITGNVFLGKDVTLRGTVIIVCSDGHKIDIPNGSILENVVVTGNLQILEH
The experiment in a line: Activity assay of UDPglucose pyrophosphorylase (UGPase), Baker yeast enzyme. Type of experiment: biochemical, Bakers yeast. As to conditions: 2 mM substrate, 1 mM UTP, 30° C., 30 minutes, HPLC. Here is the method:
as §11, §12, §13, §14
50 mM Tris-HCl, pH 7.6; 16 mM MgCl2; 10 mM L-cystein, 1 mM UTP; inorganic pyrophosphorylase; 2 mM glucose-1-P or glucosamine-1-P;
as §16, §17

Experiment [1] relates to yeast glycogen synthase (YGS). The experiment in a line: Activity assay of the yeast glycogen synthase (YGS) overexpressed in Pichia. Type of experiment: biochemical. As to conditions: 6.7 mM UDP glucosamine, 1 mM maltoheptose, 30° C., 1 hour; preliminary results. Here is the method:
6. Activity Assay of the Yeast Glycogen Synthase (YGS)
The last reaction: synthesis of cationic starch by the yeast glycogen synthase overexpressed in Pichia using UDPgluosamine and glucosyl oligosaccharide primers: […]
UDP glucosamine+starch→starch periodically interspersed with 2 amino anhydroglucose
The YGS produced from secreted expression in Pichia was isolated from the growth medium, desalted into a buffer containing 50 mM Tris-HCl and 5 mM EDTA, pH 7.8, and concentrated using Centricon-30 concentrator. The preparation was used for assaying the activity of YGS.
50 mM Tris-HCl and 5 mM EDTA, pH 7.8
6.7 mM UDP glucose or UDP glucosamine
6.7 mM glucose-6-phosphate
1 mM maltoheptose ([…], from Sigma)
Protein prep: 150 μg/300-μl reaction
Incubated at 30° C. for 1 hour.
Analyze by HPLC using Dionex's CarboPac-PA1 column with a pulsed amperometry detector (to detect the formation of elongated glusyl oligo primers);

Structures are written as SMILES.

Regarding `N[C@H]1C(O)O[C@H](COP(=O)(O)O)[C@@H](O)[C@@H]1O` (stereo partly drawn) [glucosamine-6-phosphate], the “conversion of substrate by rabbit muscle PGM (glucosamine-1-phosphate to glucosamine-6-phosphate or reverse)” value on PGM from rabbit muscle is “about 70%”.
In the case of `N[C@H]1C(OP(=O)(O)O)O[C@H](CO)[C@@H](O)[C@@H]1O` (stereo partly drawn) [glucosamine-1-phosphate], the “substrate recognition in formation of UDP glucosamine” value at bovine liver UGPase and at Baker yeast UGPase was “recognized glucosamine-1-P as a substrate” each time. The “use of substrate by PGM in maize endosperm extract (result in words)” value in the experiment with Phosphoglucomutase (PGM) is on record as “Glucosamine-6-phosphate was detected”. Moreover, in the experiment on UGPase, the “activity in using substrate to form UDP glucosamine” value is recorded as “also found in maize endosperm protein extract”. The “conversion of substrate by rabbit muscle PGM (glucosamine-1-phosphate to glucosamine-6-phosphate or reverse)” value on PGM from rabbit muscle is reported as “about 60%”.
Consider `N[C@H]1[C@@H](OP(=O)(O)OP(=O)(O)OC[C@H]2O[C@@H](n3ccc(=O)[nH]c3=O)[C@H](O)[C@@H]2O)O[C@H](CO)[C@@H](O)[C@@H]1O` [UDP glucosamine], for which, in experiment [1], the “substrate recognition, transfer of glucosaminyl moiety to glucosyl oligo primers” value is “recognize UDP glucosamine as a substrate”.
Consider `O=P(O)(O)O[C@H]1O[C@H](CO)[C@@H](O)[C@H](O)[C@H]1O` [glucose-1-phosphate], for which, in the experiment with Phosphoglucomutase (PGM), the “use of substrate by PGM in maize endosperm extract (result in words)” value was “near complete conversion”. For the same compound, at PGM from rabbit muscle (positive control, formation of glucose-6-phosphate), the “use of substrate by rabbit muscle PGM (result in words)” value was “nearly depleted”.

Values taken from patent US20030177534A1, “Plant glutamine:fructose-6-phosphate amidotransferase nucleic acids” (Pioneer Hi-Bred International, Inc., priority 1998, published 2003).
